# Reference: US20090118204A1, “Methods and Compositions Related to Esculentoside A” (UNIVERSITY OF ROCHESTER, priority 2004, published 2009)
# “Also recorded” adds a separate entry of the source. Like-named read-outs stand apart in the source and are kept apart here.
# Legend:
# C57BL/6 mice [1] = assay: IR-induced early soft tissue (skin) toxicity in mice; format: in vivo, mouse; details: for skin damage score: day 19 after 30 Gy single dose IR, EsA 10 mg/kg i.p., Celebrex 50 mg/kg intragastric, 16 h before then daily, Table 4 criteria 1.0 normal to 5.0 necrosis, control above 4.5
# Method: EsA protects the soft tissue from IR-induced damage. IR sensitive and IL1β high expressing C57BL/6 mice are irradiated with 30 Gy and the skin damage is measured with a preclinical criteria (Table 4).
# The effect of EsA was examined with this model system. […] The difference was statistically significant (FIG. 7).
# A repeat experiment was performed with an increased number of mice (10 mice/group), and the EsA protective effect was confirmed.
# activated macrophages = details: cited from earlier work
# human recombinant COX-2 = biological target: T1, human recombinant COX-2 (Homo sapiens, UniProt P35354); assay: Cayman COX Inhibitor Screening Assay, COX-2; format: biochemical; details: prostanoid quantified by EIA
# T1 construct: purchased Cayman 560131
# Excerpt: (§1) It is known that constitutive COX-1 and inducible COX-2 catalyze the production of prostaglandins (PGs) from arachidonic acid. The Cayman COX Inhibitor Screening Assay kit directly measures PGF2α produced by SnCl2 reduction of COX-derived PGH2. The prostanoid product is quantified via enzyme immunoassay (EIA) using a broadly specific antibody that binds to all the major prostaglandin compounds (FIG. 15A). To distinguish the inhibition of COX-1 from COX-2, both ovine COX-1 and human recombinant COX-2 enzymes were used as targets. […] EsA is a novel COX-2 inhibitor, which accounts for its observed protective effects on skin (FIGS. 5-7) and brain (FIGS. 8-9).
# sensitized mice = details: mouse, in vivo; cited from earlier work
# murine ears = details: induced by zylene, acute inflammation model; cited from earlier work
# [2] = biological target: T2, glucocorticoids receptor (GR) (Mus musculus, UniProt P06537); assay: CAT reporter assay for hormone transactivity in E8.2.A3 cells, GR; format: cell-based; details: 44 hours; EsA 0.4 ng/ml to 40000 μg/ml; Dex 5×10^−7 M
# T2 construct: expressed in transfected cells
# Method: (§2) Structurally, EsA has a certain similarity with steroidal hormone, especially a steroid-like back-bone. […] A sensitive reporter system for the hormone transactivity of glucocorticoids receptor (GR) and androgen receptor (AR) was set up as elucidated in the chart (FIG. 12). […] Individual clones with stably transfected mGR and CAT reporter gene were selected with 400 μg/ml of G418 in DMEM medium containing 3% charcoal stripped new born calf serum. […] The treated cells were washed with phosphate buffer saline (PBS) once. To each well, 0.25 ml of 0.25M Tris-HCl was added. The plates underwent 3 cycles of freeze and thaw at −70° C. and room temperature followed by heating at 65° C. for 10 min by floating the plates in a hot water bath. Then, 0.1 ml of cell lysate from each well was used for the CAT assay. […] Briefly, 100 μl of cell lysate from each well were mixed with 150 μl reaction solution (128 μl of 0.25 M Tris-HCl, pH 7.8, 2 μl of the commercial ^3H-acetyl CoA and 20 μl of 2 mg/ml chloramphenicol) in the scintillation vials. To each vial, 2 ml non-aqueous scintillation fluid was added and mixed with the reaction by shaking or vortexing. The vials were counted 3-6 times in a scintillation counter at regular intervals over 1 to 4 hours.
# [3] = tested on: IL1β production in A431 human epidermoid carcinoma cells; assay: IR-induced IL1β production (ELISA) in A431; format: cell-based
# [4] = tested on: granuloma induced by cotton pellet; details: cited from earlier work
# C57BL/6 mice [5] = details: 40 Gy whole head; EsA 10 mg/kg i.p., Dex 3 mg/kg i.v. before IR; brains taken 24 h later; P<0.05
# Method: 16 hour before the whole heads of mice were irradiated at 40 Gy.
# The mice without radiation served as negative controls. Twenty four hours later, the whole brain was taken out, weighed (wet weight), placed on aluminum foil and placed in an oven at 60° C. At different time points (10 min intervals for the first 2 hours and then 4, 6, 24 hr), the brains were weighed, and the results were expressed as: % water={(wet weight−dry weight)/wet weight}×100%. The higher the % water, the greater the severity of edema. Brain % water as a function of time provided a brain drying curve.
# [6] = cited from earlier work
# NO production in THP-1 = assay: IR-induced NO production in THP-1; format: cell-based, human; details: 0.1, 0.5 and 5 μg/ml EsA; NO up-regulated 5 fold 4 hours after IR
# Method: (§3) The anti-tumor effectiveness of IR is based in part on triggering the reactive oxygen species and free radicals in tumors; meanwhile, IR also damages normal tissues and causes unwanted toxicity.
# (§4) The study was carried out in Raw264.7 cells that were irradiated with 0, 2, 4 and 8 Gy. […] At this optimal condition, EsA (0.5 or 5 μg/ml) was added 8 hours before the IR at 4 Gy and 24 hours later, the media was harvested and 100 μl of media was measured for NO content in the form of nitrite. […] To see if this inhibition was cell line specific, another human macrophage cell line THP-1 was examined.
# mice = details: following LPS challenge; cited from earlier work
# rat hind paws = details: cited from earlier work; for swelling of hind paws: induced by carrageenan
# peritoneal macrophages = details: macrophages from mice pretreated with thioglycolate; cited from earlier work
# ICAM-1 and CD18 = details: LPS-induced; cited from earlier work
# [7] = tested on: IL1α production by RAW264.7; assay: IL1α production by macrophages; format: cell-based, mouse; details: FIG. 29, in vitro macrophages
# activated splenocytes = details: cited from earlier work
# androgen receptor (AR) = biological target: T3, androgen receptor (AR) (Mus musculus, UniProt P19091); assay: CAT reporter assay for hormone transactivity in E8.2.A3 cells, AR; format: cell-based; details: 44 hours; EsA 0.4 ng/ml to 40000 μg/ml; DHT 5×10^−7 M
# T3 construct: contain high levels of AR; endogenous in cells; host or cells: E8.2.A3 cells (mouse L cell fibroblast variant)
# Method: as §2
# [8] = tested on: Lewis' lung carcinoma cells; assay: Tumor growth of Lewis' lung carcinoma in syngeneic mice; format: in vivo, mouse; details: daily for 20 days, same dose as in soft tissue protection
# Excerpt: Considering that EsA is used as a radioprotector in patients with tumors, its effect on tumor growth is a critical issue for its application.
# [9] = tested on: TNF production by Raw264.7; assay: TNF production by macrophages with LPS and radiation; format: cell-based, mouse; details: FIG. 31, LPS and radiation
# mouse = assay: Alopecia and hair regrowth after 30 Gy irradiation; format: in vivo
# [10] = tested on: IL1β production in Raw 264.7 macrophage cells; assay: IR-induced IL1β production (ELISA) in Raw 264.7; format: cell-based, mouse; details: 2 Gy, 24 hours culture
# Method: IL1β is crucial mediator in early IR toxicity of both brain and soft tissue. […] The protective effect of EsA on early IR toxicity results in part from this effect. First we determined the optimal IR dose to induce IL1 production in Raw 264.7 macrophage cells. Equal numbers of cells were exposed to 0, 2, 4 and 8 Gy IR and 24 hours later, the conditioned media were harvested and 100 μl of media from each sample was measured for IL1β concentration by specific IL1β ELISA using monoclonal antibodies (purchased from R&D Systems, Inc). […] Therefore, 2 Gy was used as optimal IR dose for Raw 264.7 for this set of tests. The cells were treated with 0.1 or 1 μg/ml of EsA for 18 hours, irradiated at 2Gy and then cultured for another 24 hours. The media were measured for protein level of IL1β by ELISA.
# ovine COX-1 = biological target: T4, ovine COX-1 (Ovis aries, UniProt P05979); assay: Cayman COX Inhibitor Screening Assay, COX-1; format: biochemical; details: prostanoid quantified by EIA
# T4 construct: purchased Cayman 560131
# Excerpt: as §1
# [11] = tested on: prostaglandin E2 (PGE2), platelet-activating factor (PAF), and nitric oxide (NO); details: cited from earlier work
# [12] = tested on: VEGF production by mouse fibroblast L-929; assay: VEGF production by fibroblasts; format: cell-based; details: FIG. 10
# [13] = tested on: NO production in Raw264.7; assay: IR-induced NO production (nitrite, Griess) in Raw264.7; format: cell-based, mouse; details: EsA 0.5 or 5 μg/ml added 8 hours before 4 Gy; media 24 hours later
# Method: as §3, §4
# [14] = tested on: autoimmunity animal model; details: in vivo; cited from earlier work
# activated thymocytes = details: cited from earlier work
# E8.2.A3 cells = assay: Morphological changes and cell death in reporter cells; format: cell-based, mouse; details: 44 hours, observed twice a day
# IR brain edema = details: cited from earlier work
# COX-2 transgenic mice = details: mouse, in vivo; cited from earlier work
# [15] = relative long-term use (>2-3 weeks after IR)
# T3 sequence (P19091 whole entry): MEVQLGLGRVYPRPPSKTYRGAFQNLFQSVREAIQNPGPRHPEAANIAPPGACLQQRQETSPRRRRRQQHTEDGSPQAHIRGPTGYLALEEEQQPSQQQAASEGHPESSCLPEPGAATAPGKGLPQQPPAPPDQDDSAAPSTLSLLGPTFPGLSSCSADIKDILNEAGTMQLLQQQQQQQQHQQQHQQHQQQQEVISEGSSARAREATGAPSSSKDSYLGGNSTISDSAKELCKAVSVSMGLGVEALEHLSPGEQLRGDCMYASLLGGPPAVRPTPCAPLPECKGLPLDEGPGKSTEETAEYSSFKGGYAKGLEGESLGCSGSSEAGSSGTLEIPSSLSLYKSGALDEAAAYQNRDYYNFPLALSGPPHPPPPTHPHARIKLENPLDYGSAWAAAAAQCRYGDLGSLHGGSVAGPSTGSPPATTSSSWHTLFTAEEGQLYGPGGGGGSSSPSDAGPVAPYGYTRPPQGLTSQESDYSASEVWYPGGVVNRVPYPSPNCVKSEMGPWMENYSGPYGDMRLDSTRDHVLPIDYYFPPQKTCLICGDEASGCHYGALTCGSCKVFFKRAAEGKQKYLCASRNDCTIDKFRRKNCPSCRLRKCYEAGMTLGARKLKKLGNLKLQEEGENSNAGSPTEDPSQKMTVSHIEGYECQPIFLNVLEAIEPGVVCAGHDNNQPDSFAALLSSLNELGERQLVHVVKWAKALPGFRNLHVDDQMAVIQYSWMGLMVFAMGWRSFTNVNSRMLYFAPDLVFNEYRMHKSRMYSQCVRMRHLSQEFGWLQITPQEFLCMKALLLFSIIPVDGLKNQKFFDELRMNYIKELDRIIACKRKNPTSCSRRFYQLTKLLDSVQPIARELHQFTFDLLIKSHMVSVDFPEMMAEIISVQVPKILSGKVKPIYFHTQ
# T1 sequence (P35354 18-604): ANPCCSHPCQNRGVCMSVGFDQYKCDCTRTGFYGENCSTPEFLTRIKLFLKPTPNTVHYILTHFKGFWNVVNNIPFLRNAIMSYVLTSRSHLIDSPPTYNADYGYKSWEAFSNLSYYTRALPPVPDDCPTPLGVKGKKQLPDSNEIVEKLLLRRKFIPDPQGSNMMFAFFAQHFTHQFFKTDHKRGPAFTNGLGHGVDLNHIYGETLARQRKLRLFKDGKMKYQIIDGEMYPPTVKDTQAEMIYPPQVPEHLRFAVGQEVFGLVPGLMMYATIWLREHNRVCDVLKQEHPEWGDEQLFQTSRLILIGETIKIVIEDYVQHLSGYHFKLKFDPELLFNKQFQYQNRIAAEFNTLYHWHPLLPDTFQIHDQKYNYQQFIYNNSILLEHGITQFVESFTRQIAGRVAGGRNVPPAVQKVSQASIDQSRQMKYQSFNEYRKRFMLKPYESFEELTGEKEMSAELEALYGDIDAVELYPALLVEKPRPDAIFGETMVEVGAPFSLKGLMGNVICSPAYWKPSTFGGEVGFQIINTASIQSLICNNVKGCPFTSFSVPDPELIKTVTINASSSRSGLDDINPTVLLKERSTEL
# T4 sequence (P05979 25-600): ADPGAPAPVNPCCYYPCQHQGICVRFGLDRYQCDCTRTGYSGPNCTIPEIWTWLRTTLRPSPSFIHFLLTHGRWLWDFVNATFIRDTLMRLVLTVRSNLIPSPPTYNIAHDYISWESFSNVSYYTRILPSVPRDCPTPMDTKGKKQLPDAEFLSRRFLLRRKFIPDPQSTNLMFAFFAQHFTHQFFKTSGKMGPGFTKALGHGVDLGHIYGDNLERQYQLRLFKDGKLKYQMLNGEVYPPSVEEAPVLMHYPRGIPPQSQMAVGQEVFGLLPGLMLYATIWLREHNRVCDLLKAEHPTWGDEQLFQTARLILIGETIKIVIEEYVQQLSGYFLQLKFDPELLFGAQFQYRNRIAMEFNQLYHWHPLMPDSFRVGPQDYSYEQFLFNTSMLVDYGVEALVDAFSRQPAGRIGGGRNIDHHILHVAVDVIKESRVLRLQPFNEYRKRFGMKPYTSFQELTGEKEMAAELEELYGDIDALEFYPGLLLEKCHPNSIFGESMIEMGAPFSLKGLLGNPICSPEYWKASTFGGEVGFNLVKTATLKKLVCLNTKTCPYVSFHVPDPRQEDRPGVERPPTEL
# T2 sequence (P06537 whole entry): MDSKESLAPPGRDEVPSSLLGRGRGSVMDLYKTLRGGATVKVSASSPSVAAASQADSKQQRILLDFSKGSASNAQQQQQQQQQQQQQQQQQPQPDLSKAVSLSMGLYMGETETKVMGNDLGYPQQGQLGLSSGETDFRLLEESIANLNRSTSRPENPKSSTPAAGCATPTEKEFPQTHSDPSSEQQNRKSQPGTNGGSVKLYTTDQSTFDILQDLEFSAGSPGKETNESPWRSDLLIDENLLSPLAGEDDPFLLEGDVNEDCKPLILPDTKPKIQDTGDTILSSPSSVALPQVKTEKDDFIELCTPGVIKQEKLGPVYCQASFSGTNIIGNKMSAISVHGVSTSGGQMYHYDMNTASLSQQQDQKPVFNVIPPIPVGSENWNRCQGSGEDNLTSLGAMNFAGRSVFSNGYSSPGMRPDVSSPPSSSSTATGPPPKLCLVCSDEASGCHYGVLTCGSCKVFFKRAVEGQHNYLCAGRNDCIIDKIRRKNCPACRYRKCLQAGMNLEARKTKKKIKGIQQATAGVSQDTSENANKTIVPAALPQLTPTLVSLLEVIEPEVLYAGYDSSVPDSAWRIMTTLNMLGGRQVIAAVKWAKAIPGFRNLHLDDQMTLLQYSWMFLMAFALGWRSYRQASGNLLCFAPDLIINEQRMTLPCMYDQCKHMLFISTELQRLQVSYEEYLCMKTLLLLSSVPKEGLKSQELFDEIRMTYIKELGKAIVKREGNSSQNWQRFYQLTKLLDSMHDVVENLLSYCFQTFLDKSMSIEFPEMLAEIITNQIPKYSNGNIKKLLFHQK
smiles,measurement,setting,value
"Cc1ccc(-c2cc(C(F)(F)F)nn2-c2ccc(S(N)(=O)=O)cc2)cc1 [Celebrex, celecoxib, reference compound]",skin damage score,C57BL/6 mice [1],about 3
"COC(=O)[C@@]1(C)CC[C@]2(C(=O)O)CC[C@]3(C)C(=CC[C@@H]4[C@@]5(C)C[C@H](O)[C@H](O[C@@H]6OC[C@@H](O[C@@H]7O[C@H](CO)[C@@H](O)[C@H](O)[C@H]7O)[C@H](O)[C@H]6O)[C@@](C)(CO)[C@@H]5CC[C@]43C)[C@@H]2C1 [EsA, Esculentoside A]","macrophage functions (phagocytosis, antibody production, secretion of cytokines)",activated macrophages,diminished
same,effect on COX-2,human recombinant COX-2,inhibited the COX-2 in a dose-dependent manner
same,serum hemolysin concentration,sensitized mice,markedly decreased
same,swelling of ears,murine ears,markedly lowered
same,glucocorticoidal hormone transactivity (CAT activity),[2],neither androgen nor glucocorticoidal hormone transactivity
same,IL1β induced by IR,"[3]; EsA 0.1 μg/ml, 4 Gy, P<0.01",inhibited; also recorded: reduced
same,IL1β production induced by IR in vitro in epithelial cells,[3]; FIG. 27,inhibitory effect
same,proliferation of granuloma,[4],significantly inhibited
same,brain edema (% water),C57BL/6 mice [5],reduction of brain edema was statistically significant; also recorded: less extensive brain edema; also recorded: can reduce IR-induced brain edema
same,water-solubility,[6],high water-solubility
same,reduction of NO production,NO production in THP-1,3 fold
same,"TNF, IL-1 and IL-6 levels in the sera",mice,dose-dependently decreased
same,duration of the effects,rat hind paws; acute inflammation models,more than 5 hours
same,swelling of hind paws,rat hind paws; adrenalectomised rat,suppressed
same,swelling of hind paws,rat hind paws,inhibited
same,"release of TNF, IL-1 and IL-6",peritoneal macrophages,significantly reduced
same,expression of adhesion molecules ICAM-1 and CD18,ICAM-1 and CD18,suppressed
same,IL1α production,[7],inhibitory effect
same,production of IL-2,activated splenocytes,inhibited
same,androgen hormone transactivity (CAT activity),androgen receptor (AR),neither androgen nor glucocorticoidal hormone transactivity
same,tumor growth,[8],little effect on tumor growth
same,TNF production,[9],inhibitory effect
same,hair regrowth / duration of alopecia,"mouse; 30 Gy, Celebrex i.g. 50 mg/kg for 20 days",after two weeks
same,recovery of cranial alopecia,mouse; EsA compared with celebrex,recovered more quickly and completely
same,IR-induced production of IL1β,[10]; EsA 0.1 μg/ml for 18 hours,dramatically inhibited; also recorded: reduced
same,IR-induced production of IL1β,"[10]; EsA 1 μg/ml for 18 hours, P<0.01",reduced the IL1β to the basal level
same,effect on COX-1,ovine COX-1,no effect
same,"production of PGE2, PAF and NO",[11],inhibited
same,protection of soft tissue,"C57BL/6 mice [1]; 4 weeks after 30 Gy IR, same dosing",effectively protected the soft tissue
same,skin damage score,C57BL/6 mice [1],about 2
same,early IR skin toxicity,C57BL/6 mice [1]; [15],prevented
same,second wave of IL1β,C57BL/6 mice [1]; [15],blocked
same,signs of sickness,C57BL/6 mice [1]; whole course of EsA treatment,no signs of sickness were observed
same,VEGF production,[12],inhibitory effect
same,IR-induced NO production,[13],inhibited
same,inflammation of joint and viscera,[14],decreased
same,apoptosis of activated thymocytes,activated thymocytes,accelerated
same,concentration at which death of cells was observed,E8.2.A3 cells,40000 µg/mL
same,concentration with no morphological change of cells,E8.2.A3 cells,below 4 mg/ml
CS(=O)(=O)Nc1ccc([N+](=O)[O-])cc1OC1CCCCC1 [NS-398],induction of prostanoid and IR brain edema,IR brain edema; Moore et al. 2004,blocked
same,IR toxicity in brain and soft tissue,"IR brain edema; mouse, in vivo",protected
COc1ccc2c(c1)c(CC(=O)O)c(C)n2C(=O)c1ccc(Cl)cc1 [indomethacin],microvessel density,COX-2 transgenic mice,strongly decreased
same,tumor progression,COX-2 transgenic mice,inhibited
same,upregulation of angiogenic regulatory genes in mammary tissue,COX-2 transgenic mice,inhibited
